US20160237059A1, “HETEROCYCLIC SUBSTITUTED TRIFLUOROMETHYL PYRIMIDINONES AND THEIR USE” (BAYER PHARMA AKTIENGESELLSCHAFT, priority 2013, published 2016)

What was measured:
murine CCR2 = molecular target: T1, murine CCR2 (Mus musculus, UniProt P51683); assay: Functional β-arrestin recruiting test with murine MCP-1 (B-2b); format: cell-based; conditions: U2OS β-arrestin cell line transfected with murine CCR2; agonist murine MCP-1; in some cases means of several determinations
T1 construct: host or cells: U2OS β-arrestin cell line
Method: The antagonistic action of test substances on CCR2 was determined in a β-arrestin test. The PathHunter β-arrestin GPCR test system (DiscoveRx Corporation, Ltd.) is a cell-based functional method for detecting binding of β-arrestin to an activated receptor. The molecular basis is a […] complementation measured by the enzymatic conversion of a chemiluminescent substrate. The test cell used was a U2OS β-arrestin cell line transfected with murine CCR2 (93-0543C3, DiscoveRx Corporation, Ltd.).
(§1) The test substances were dissolved in dimethyl sulphoxide (DMSO) at a concentration of 10 mM and serially diluted with DMSO in steps of 1:3.16 for a 10-point dose/activity analysis. According to the desired test concentrations, the substances were pre-diluted in Tyrode with 2 mM CaCl2 and 0.05% BSA.
The cells, cultivated in MEM Eagle (supplemented with 10% FCS, 50 U/ml of penicillin, 50 μg/ml of streptomycin, 250 μg/ml of hygromycin and 500 μg/ml of geniticin), were sown at 2000 cells/25 μl in 384 well, μCLEAR/black cell culture plates from Greiner (#781092) and incubated at 37° C. for 24 h. The sowing medium consisted of Opti-MEM (supplemented with 1% FCS, 50 U/ml of penicillin and 50 μg/ml of streptomycin). The cells were pre-incubated for 10 min with 10 μl of the test substances diluted in buffer, and 10 μl of agonist solution [human MCP-1 (PeproTech, #300-04) in Tyrode with 0.05% BSA) were then added. The human MCP-1 was employed at the concentration which corresponds to the EC50 which had been determined in a preliminary test (usually about 3 nM). After 90 min of incubation at 37° C., the solution was removed, and recruitment of β-arrestin to CCR2 was detected with the aid of the PathHunter detection reagent (93-001, DiscoveRx Corporation, Ltd.) according to the instructions of the manufacturer. Luminescence was measured after an incubation time of 60 min using a proprietary luminescence imaging measuring instrument. The molar concentration of the test substance which caused 50% inhibition of the MCP-1 effect (IC50) was determined using a 4-parameter logistic function (Hill function).
The test was carried out in a manner identical to that described above under B-2a, but using murine MCP-1 (PeproTech, #250-10) as agonist.

human CCR2 = molecular target: T2, human CCR2 (Homo sapiens, UniProt P41597); assay: Functional Ca2+ release test (B-1); format: cell-based; conditions: Chem-1 cell line transfected with human CCR2; 50% inhibition of the MCP-1 effect, MCP-1 at EC50 (about 5 nM); in some cases means of several determinations
T2 construct: host or cells: Chem-1 cell line
T2 sequence (P41597 1-360 isoform P41597-2): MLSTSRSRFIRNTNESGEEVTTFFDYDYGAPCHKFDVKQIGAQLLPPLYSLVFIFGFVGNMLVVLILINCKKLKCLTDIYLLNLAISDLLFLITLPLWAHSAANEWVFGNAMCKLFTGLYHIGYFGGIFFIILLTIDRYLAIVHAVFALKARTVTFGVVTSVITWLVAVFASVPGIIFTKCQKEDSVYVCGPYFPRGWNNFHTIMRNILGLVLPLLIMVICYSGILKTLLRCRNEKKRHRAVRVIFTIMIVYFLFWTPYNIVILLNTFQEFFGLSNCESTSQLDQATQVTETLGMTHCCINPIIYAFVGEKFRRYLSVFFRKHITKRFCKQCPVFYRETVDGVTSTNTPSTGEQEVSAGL
Method: The antagonistic action of test substances on CCR2 was determined in a functional Ca^2+ release test. Binding of CCL2/MCP-1 to CCR2 leads to a change in the conformation of the receptor resulting in Gi/Gq protein activation and intracellular signal cascade. This involves, inter alia, an intracellular Ca^2+ release. The test cell used was a Chem-1 cell line transfected with human CCR2 (ChemiSCREEN™ CCR2B Calcium-Optimized FLIPR Cell Line, Merck Millipore).
as §1
The cells, cultivated in DMEM high glucose [supplemented with 10% FCS, 1 mM pyruvate, 15 mM HEPES, 500 μg/ml geniticin and non-essential amino acids (NEAA)], were sown at 5000 cells/25 μl in 384 well, μCLEAR/black cell culture plates from Greiner (#781092) and incubated at 37° C. for 24 h. The sowing medium consisted of DMEM high glucose [supplemented with 5% FCS, 1 mM pyruvate, 15 mM HEPES, 50 U/ml penicillin, 50 μg/ml streptomycin and non-essential amino acids (NEAA)]. The medium was then removed and the cells were charged for 60 min at 37° C. with Fluo-4 dye [25 μl Tyrode with 3 μM Fluo-4 AM (1 mM DMSO stock solution), 0.4 mg/ml Brilliant Black, 2.5 mM probenicid, 0.03% Pluronic F-127]. The cells were pre-incubated for 10 min with 10 μl of the test substances diluted in buffer, and 20 μl of agonist solution (MCP-1 in Tyrode with 0.05% BSA) were then added. MCP-1 was employed at the concentration which corresponds to the EC50 which had been determined in a preliminary test (usually about 5 nM). Ca^2+ release was monitored over a period of 120 s in 1 s increments in a proprietary fluorescence imaging reader. The molar concentration of the test substance which caused 50% inhibition of the MCP-1 effect (IC50) was determined using a 4-parameter logistic function (Hill function).

T1 sequence (P51683 whole entry): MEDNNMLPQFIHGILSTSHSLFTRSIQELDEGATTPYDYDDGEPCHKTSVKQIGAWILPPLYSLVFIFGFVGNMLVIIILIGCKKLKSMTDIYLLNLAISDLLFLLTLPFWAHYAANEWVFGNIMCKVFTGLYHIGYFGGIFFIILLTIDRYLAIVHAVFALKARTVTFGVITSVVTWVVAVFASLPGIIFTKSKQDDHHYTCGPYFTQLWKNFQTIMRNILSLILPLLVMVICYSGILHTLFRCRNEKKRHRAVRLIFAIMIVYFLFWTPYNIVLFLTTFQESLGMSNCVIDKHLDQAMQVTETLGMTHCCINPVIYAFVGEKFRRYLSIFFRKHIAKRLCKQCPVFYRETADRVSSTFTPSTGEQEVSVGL

Row | IC50 (murine CCR2) [nM] | IC50 (human CCR2) [nM] | SMILES
1 | 44 | 0.5 | COc1cncnc1-c1nc(C(F)(F)F)c(Oc2ccc(Cl)c(C(F)(F)F)c2)c(=O)[nH]1 [Example 120, 5-[4-chloro-3-(trifluoromethyl)phenoxy]-5′-methoxy-6-(trifluoromethyl)-2,4′-bipyrimidin-4(3H)-one]
2 | 8.5 | 0.6 | COc1c[nH]nc1-c1nc(C(F)(F)F)c(Oc2ccc(Cl)c(C(F)(F)F)c2)c(=O)[nH]1 [Example 214, 5-[4-chloro-3-(trifluoromethyl)phenoxy)-2-(4-methoxy-1H-pyrazol-3-yl)-6-(trifluoromethyl)pyrimidin-4(3H)-one]
3 | 185 | 0.4 | COc1ccc(-c2nc(C(F)(F)F)c(Oc3ccc(Cl)c(C(F)(F)F)c3)c(=O)[nH]2)nc1 [Example 119, 5-[4-chloro-3-(trifluoromethyl)phenoxy]-2-(5-methoxypyridin-2-yl)-6-(trifluoromethyl)pyrimidin-4(3H)-one]
4 | 1600 | 16 | O=c1[nH]c(-c2ncccc2-c2ccccc2)nc(C(F)(F)F)c1Oc1ccc(Cl)c(Cl)c1 [Example 187, 5-(3,4-dichlorophenoxy)-2-(3-phenylpyridin-2-yl)-6-(trifluoromethyl)pyrimidin-4(3H)-one]
5 | 838 | 8.2 | COc1ccnc(-c2nc(C(F)(F)F)c(Oc3ccc(Cl)c(C(F)(F)F)c3)c(=O)[nH]2)c1 [Example 152, 5-[4-chloro-3-(trifluoromethyl)phenoxy]-2-(4-methoxypyridin-2-yl)-6-(trifluoromethyl)pyrimidin-4(3H)-one]
6 | 73 | 0.4 | O=c1[nH]c(-c2cccnn2)nc(C(F)(F)F)c1Oc1ccc(Cl)c(C(F)(F)F)c1 [Example 118, 5-[4-chloro-3-(trifluoromethyl)phenoxy]-2-(pyridazin-3-yl)-6-(trifluoromethyl)pyrimidin-4(3H)-one]
7 | 105 | 1 | COc1conc1-c1nc(C(F)(F)F)c(Oc2ccc(Cl)c(C(F)(F)F)c2)c(=O)[nH]1 [Example 180, 5-[4-chloro-3-(trifluoromethyl)phenoxy]-2-(4-methoxy-1,2-oxazol-3-yl)-6-(trifluoromethyl)pyrimidin-4(3H)-one]
8 | 164 | 0.6 | COc1cc(OC)nc(-c2nc(C(F)(F)F)c(Oc3ccc(Cl)c(C(F)(F)F)c3)c(=O)[nH]2)n1 [Example 122, 5-[4-chloro-3-(trifluoromethyl)phenoxy]-4′,6′-dimethoxy-6-(trifluoromethyl)-2,2′-bipyrimidin-4(3H)-one]
9 | 86 | 1.1 | COc1cncnc1-c1nc(C(F)(F)F)c(Oc2ccc(Cl)c(Cl)c2)c(=O)[nH]1 [Example 143, 5-(3,4-dichlorophenoxy)-5′-methoxy-6-(trifluoromethyl)-2,4′-bipyrimidin-4(3H)-one]
10 | 7.6 | 0.2 | CSc1cccnc1-c1nc(C(F)(F)F)c(Oc2ccc(Cl)c(Cl)c2)c(=O)[nH]1 [Example 115, 5-(3,4-dichlorophenoxy)-2-[3-(methylsulphanyl)pyridin-2-yl]-6-(trifluoromethyl)pyrimidin-4(3H)-one]
11 | 221 | 0.8 | COc1cc(C)nc(-c2nc(C(F)(F)F)c(Oc3ccc(Cl)c(C(F)(F)F)c3)c(=O)[nH]2)n1 [Example 184, 5-[4-chloro-3-(trifluoromethyl)phenoxy]-4′-methoxy-6′-methyl-6-(trifluoromethyl)-2,2′-bipyrimidin-4(3H)-one]
12 | 276 | 2.8 | Nc1cnc2cnn(-c3nc(C(F)(F)F)c(Oc4ccc(Cl)c(Cl)c4)c(=O)[nH]3)c2c1 [Example 257]
13 | 1230 | 2.2 | CSc1cnn(-c2nc(C(F)(F)F)c(Oc3ccc(Cl)c(Cl)c3)c(=O)[nH]2)c1 [Example 248]
14 | 334 | 16 | Cn1nc(-c2nc(C(F)(F)F)c(Oc3ccc(Cl)c(C(F)(F)F)c3)c(=O)[nH]2)c2ccccc21 [Example 137, 5-[4-chloro-3-(trifluoromethyl)phenoxy]-2-(1-methyl-1H-indazol-3-yl)-6-(trifluoromethyl)pyrimidin-4(3H)-one]
15 | 299 | 1.5 | O=c1[nH]c(-c2ncccc2Cl)nc(C(F)(F)F)c1Cc1ccc(Cl)cc1 [Example 211]
16 | 949 | 9.9 | O=c1[nH]c(-n2ncc3ncccc32)nc(C(F)(F)F)c1Oc1ccc(Cl)c(Cl)c1 [Example 258]
17 | 36 | 0.3 | COc1nccnc1-c1nc(C(F)(F)F)c(Oc2ccc(Cl)c(Cl)c2)c(=O)[nH]1 [Example 117, 5-(3,4-dichlorophenoxy)-2-(3-methoxypyrazin-2-yl)-6-(trifluoromethyl)pyrimidin-4(3H)-one]
18 | 76 | 0.8 | Cc1cnc(-c2nc(C(F)(F)F)c(Oc3ccc(Cl)c(Cl)c3)c(=O)[nH]2)[nH]1 [Example 241]
19 | 110 | 0.6 | CC(=O)Nc1ccc(-c2nc(C(F)(F)F)c(Oc3ccc(Cl)c(C(F)(F)F)c3)c(=O)[nH]2)nc1 [Example 199]
20 | 775 | 3.5 | O=c1[nH]c(-c2cc(C3CC3)on2)nc(C(F)(F)F)c1Oc1ccc(Cl)c(C(F)(F)F)c1 [Example 220]
21 | 170 | 0.3 | Cc1cc(-c2nc(C(F)(F)F)c(Oc3ccc(Cl)c(C(F)(F)F)c3)c(=O)[nH]2)no1 [Example 232]
22 | 153 | 2.7 | CNc1cccc(-c2nc(C(F)(F)F)c(Oc3ccc(Cl)c(C(F)(F)F)c3)c(=O)[nH]2)n1 [Example 167, 5-[4-chloro-3-(trifluoromethyl)phenoxy]-2-[6-(methylamino)pyridin-2-yl]-6-(trifluoromethyl)pyrimidin-4(3H)-one]
23 | 47 | 0.3 | Cc1ccc(Oc2c(C(F)(F)F)nc(-c3cc[nH]n3)[nH]c2=O)cc1Cl [Example 224]
24 | 259 | 3.8 | O=c1[nH]c(-c2cnccn2)nc(C(F)(F)F)c1Oc1ccc(Cl)c(C(F)(F)F)c1 [Example 132, 5-[4-chloro-3-(trifluoromethyl)phenoxy]-2-(pyrazin-2-yl)-6-(trifluoromethyl)pyrimidin-4(3H)-one]
25 | 942 | 4.1 | CC(C)Oc1cnn(-c2nc(C(F)(F)F)c(Oc3ccc(Cl)c(Cl)c3)c(=O)[nH]2)c1 [Example 250]
